Values joined by “and” are separate entries in the source; they are usually repeats but may differ in a detail not shown here. Equal values may be shown once. Marks after values point to notes of the source that are not given here.
Columns and labels:
hepatic fat fraction = assay: CDI-NASH-01 clinical study, MRI-PDFF; assay type: in vivo, human; settings: for MRI PDFF: change baseline to week 14; for Mean percent change from baseline PDFF: 700 mg SC weekly (n=22), baseline to week 14
Procedure: (§1) Eligible patients included adults aged between 18 to 75 years (inclusive), with evidence of phenotype nonalcoholic steatohepatitis (NASH). […] A stable body weight (±5%) was required during the 6 months prior to screening. Exclusion criteria include but were not limited to HIV, autoimmune hepatitis, excess alcohol use, viral hepatitis, and prior or pending liver transplantation. No patients in the 350 mg study were concomitantly treated with semaglutide, while 18% of patients in the placebo group were concomitantly treated with semaglutide.
(§2) There were 21 patients in cT1 analysis and 22 for PDFF analysis. One patient obtained PDFF at End of Treatment but MRI for cT1 despite repeat was not able to quality (by 3 cuts) so no results for cT1 were obtained on that patient.
The primary efficacy objective of the study was the change from baseline in hepatic fat fraction, assessed by magnetic resonance imaging-derived proton density fat fraction (MRI-PDFF) at week 14.

[1] = tested on: fibro-inflammatory activity in the liver; assay: CDI-NASH-01 clinical study, MRI cT1; assay type: in vivo, human; settings: for MRI cT1: change baseline to week 14; for Mean change cT1: baseline to week 14
Procedure: as §1, §2
(§3) The secondary efficacy objective was the change from baseline in fibro-inflammatory activity in the liver as assessed by cT1 (corrected T1) at week 14. cT1 is obtained by multiparametric magnetic resonance imaging of the liver and is a quantitative metric for assessing a composite of liver inflammation and fibrosis, expressed in milliseconds (msec). Additional objectives were change from baseline in LFT, chemokine and cytokine levels and key biomarkers of inflammation to week 14. In particular, change in serum cK18 and K18 by M30-M65 ELISA was assessed at week 14.

[2] = tested on: LFT, chemokine and cytokine levels and key biomarkers of inflammation; assay: CDI-NASH-01 clinical study, serum analysis of biomarkers; assay type: in vivo, human
Excerpt: as §3

[3] = tested on: NSG mice fed a high fat NASH-inducing diet; assay: Humanized NSG mice on high fat NASH-inducing diet, Oil Red O liver sections; assay type: in vivo, mouse
Procedure: 16 male were first humanized by intravenous inoculation with normal human umbilical cord blood cells. […] Mice were switched to a high fat (52%), high cholesterol (1.25%) diet. (FPC diet: fructose, palmitate, cholesterol, trans-fat; Envigo-Teklad TD.160785). […] Mice were euthanized at 16 weeks after initiation of the high fat, high cholesterol diet.
Liver sections were analyzed for indicators of NAFLD. […] Regions of interest were identified in micrographs and digitized using an Aperio AT2 slide scanner (Leica Biosystems), then analyzed using QuPath v0.2.01 imaging software. […] Percent positivity in IgG treated group was 9.751±1.789. […] Student's t test p=0.014. Steatosis was numerically scored following a semi-quantitative pathological standard.

serum cK18 and K18 = assay: CDI-NASH-01 clinical study, M30-M65 ELISA; assay type: in vivo, human
Excerpt: as §3

[4] = CDI-NASH-01 clinical study, safety and tolerability; assay type: in vivo, human
Excerpt: The secondary objective of this study was to assess the safety and tolerability of leronlimab in adult patients diagnosed with NASH compared to placebo.
(See FIG. 3 and FIG. 4.) There was no grade 3 or higher drug related treatment emergent adverse event.

[5] = tested on: NASH patients by CCR5 haplotype; assay: CDI-NASH-01 clinical study, treatment outcome by CCR5 haplotype; assay type: in vivo, human
Excerpt: CCR5 haplotype was investigated for 5 patients. Haplotypes with very high transcription and thus high cell surface expression of CCR5 include HHE/HHE and HHG1/HHG1. High transcription alleles when combined with a null allele delta 32 or HHG2 will default to the heterozygous allele such that HHE/HHG2 and HHG1/HHG2 would also be high transcribers for CCR5.
CCR5 transcriptional activity and disease progression can be slowed or accelerated. Surface CCR5 expression level also played a part in NASH disease progression and specific CCR5 haplotypes correlated with dose and treatment outcomes.
All patients appeared to benefit from a dose that lowered RANTES (CCL5) levels to approximately zero.

CCR5 = CCR5 (Homo sapiens, UniProt P51681); settings: CCR5+ cells; cited from earlier work
CCR5-expressing cells = settings: cited from earlier work
[6] = tested on: fibro-inflammatory activity in the liver; assay: CDI-NASH-01 clinical study, MRI cT1; assay type: in vivo, human; settings: 350 mg SC weekly, all patients (n = 22), change baseline to week 14
HIV-1 = settings: in vitro and hu-PBL-SCID mouse model; at concentrations that do not affect CCR5 chemokine receptor activity; cited from earlier work
[7] = placebo patients concomitantly treated with semaglutide (n = 5)
[8] = placebo patients concomitantly treated with semaglutide (n = 5), change baseline to week 14
[9] = 350 mg SC weekly, baseline cT1 ≥ 875 (n = 14)
[10] = 350 mg SC weekly, baseline cT1 ≥ 950 (n = 8)
[11] = 350 mg, patients with baseline elevated ALT (n=8)
[12] = 700 mg group with genetic haplotypes known to over produce CCR5, post hoc analysis
[13] = 700 mg, haplotypes associated with increased CCR5 expression
[14] = 350 mg SC weekly, all patients (n = 22), change baseline to week 14
[15] = 350 mg SC weekly, baseline cT1 ≥ 875 (n = 14), change baseline to week 14
[16] = 350 mg SC weekly, baseline cT1 ≥ 950 (n = 8), change baseline to week 14
[17] = 700 mg, patients with increased CCR5 cell surface levels

Chain of CCR5 (P51681 whole entry): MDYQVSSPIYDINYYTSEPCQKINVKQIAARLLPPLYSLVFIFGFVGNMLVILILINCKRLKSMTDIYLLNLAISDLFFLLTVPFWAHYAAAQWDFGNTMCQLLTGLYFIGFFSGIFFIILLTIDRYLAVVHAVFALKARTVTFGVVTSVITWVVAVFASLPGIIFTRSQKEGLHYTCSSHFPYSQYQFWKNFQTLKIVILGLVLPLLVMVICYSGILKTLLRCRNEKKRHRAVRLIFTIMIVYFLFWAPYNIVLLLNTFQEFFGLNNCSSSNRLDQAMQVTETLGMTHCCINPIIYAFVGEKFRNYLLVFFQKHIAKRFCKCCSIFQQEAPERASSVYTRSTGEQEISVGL

Substance: semaglutide [Placebo + Semaglutide, reference compound]
- MRI PDFF (hepatic fat fraction; [7]): −1.85%
- MRI cT1 [1, 7]: −4.40
- Alanine Aminotransferase (ALT) s [2, 8]: −3.6 U/L
- Alpha-2-Mactoglobulin s [2, 8]: -11.6 mg/mL
- Apolipoprotein A1 s [2, 8]: -4.0 mg/dL
- Aspartate Aminotransferase (AST) s [2, 8]: −2.8 U/L
- CCL2 (Monocyte Chemotactic Protein-1) [2, 8]: -6.00 pg/mL
- CCL3 (Macrophage Inflammatory Protein-1 Alpha) [2, 8]: -1.2 pg/mL
- CCL5 (RANTES) [2, 8]: 1.2
- CCL11 (Eosinophil Chemotactic Protein) [2, 8]: 0.20 pg/mL
- CCL18 (Macrophage Inflammatory Protein-4) [2, 8]: 4.80 ng/mL
- High Density Lipoprotein Cholesterol (HDL) [2, 8]: -1.0 mg/dL
- IL-6 (Interleukin 6) [2, 8]: 0.34 pg/mL
- IR-IRA (Interleukin 1 Receptor Antagonist) [2, 8]: 26.6 pg/mL
- TNF Receptor 2 (STNFR-2) [2, 8]: 0.52 ng/mL
- VCAM (Vascular Cell Adnhesion Molecule) [2, 8]: -35.6 ng/mL
- VEGF (Vascular Endothelian Growth Factor) [2, 8]: -11.2 pg/mL

Substance: leronlimab: humanized IgG4 monoclonal antibody that binds to CCR5; humanized version of murine antibody PA14
- fatty liver development ([3]; 2 mg i.p. twice weekly): inhibited
- presence of fat in the liver, Oil Red O stain ([3]; 2 mg i.p. twice weekly vs IgG): markedly reduced
- MRI PDFF (hepatic fat fraction; 350 mg SC weekly, all patients (n = 22)): significantly reduced
- MRI PDFF (hepatic fat fraction; [9]): −4.37% and −4.38* %
- MRI PDFF (hepatic fat fraction; [10]): −9.39% and −9.27* %
- PDFF change (hepatic fat fraction; [11]): −18%
- Mean percent change from baseline PDFF (hepatic fat fraction): +3.75%
- Mean percent change from baseline PDFF (hepatic fat fraction; listed as Leronlimab): did not reduce
- mean percent PDFF change (hepatic fat fraction; [12]): −27.9%
- PDFF decrease (hepatic fat fraction; [13]): 28%
- steatosis (hepatic fat fraction; [13]): Improvements
- Mean change cT1 ([1]; 350 mg SC weekly, all patients): -24.38 ms
- MRI cT1 [1, 9]: −42.00**
- MRI cT1 [1, 10]: −68.86**
- Mean change cT1 ([1]; 350 mg subgroup with baseline cT1≥875 ms): -42.00 ms
- cT1 change [1, 11]: -69 ms
- Mean change cT1 ([1]; 700 mg SC weekly): -2.73 ms
- Mean change cT1 ([1]; 700 mg SC weekly, listed as Leronlimab): did not reduce
- mean cT1 change [1, 12]: -45.4 ms
- Alpha-2-Mactoglobulin s [2, 14]: 8.96 mg/mL
- Gamma Glutamyl Transferase (GGT) s [2, 14]: −1.3 U/L
- Alkaline Phosphatase [2, 15]: −3.16 IU/L
- Apolipoprotein A1S [2, 15]: 9.2 mg/dL
- Aspartate Aminotransferase (AST) s [2, 15]: −5.5 U/L
- CCL2 (Monocyte Chemotactic Protein-1) [2, 15]: -95.53 pg/mL
- CCL3 (Macrophage Inflammatory Protein-1 Alpha) [2, 15]: −7.14*** pg/mL
- CCL5 (RANTES) [2, 15]: −7.8
- CCL11 (Eosinophil Chemotactic Protein) [2, 15]: -15.21 pg/mL
- CCL18 (Macrophage Inflammatory Protein-4) [2, 15]: −32.1** ng/mL
- EN RAGE (Receptor Advanced Glycation End-Products) [2, 15]: −115.50** ng/mL
- IL-1 (Interleukin 1) Beta [2, 15]: 0.00 pg/mL
- IL-6 (Interleukin 6) [2, 15]: -0.44 pg/mL
- IL-8 (Interleukin 8) [2, 15]: −12.6*** pg/mL
- IR-IRA (Interleukin 1 Receptor Antagonist) [2, 15]: −34.79** pg/mL
- TIMP-1 (Tissue Inhibitor Metalloproteinases 1) [2, 15]: -17.26 ng/mL
- TNF Receptor 2 (STNFR-2) [2, 15]: −2.0*** ng/mL
- VCAM (Vascular Cell Adnhesion Molecule) [2, 15]: −94.2*** ng/mL
- Alkaline Phosphatase [2, 16]: −7.25* IU/L
- Apolipoprotein A1S [2, 16]: 2.3 mg/dL
- Aspartate Aminotransferase (AST) s [2, 16]: −13.0 U/L
- CCL2 (Monocyte Chemotactic Protein-1) [2, 16]: -179.0 pg/mL
- CCL3 (Macrophage Inflammatory Protein-1 Alpha) [2, 16]: −8.0*** pg/mL
- CCL5 (RANTES) [2, 16]: −25.3
- CCL11 (Eosinophil Chemotactic Protein) [2, 16]: -16.25 pg/mL
- CCL18 (Macrophage Inflammatory Protein-4) [2, 16]: −48.0** ng/mL
- EN RAGE (Receptor Advanced Glycation End-Products) [2, 16]: −169.0* ng/mL
- Gamma Glutamyl Transferase (GGT) s [2, 16]: −6.13 U/L
- IL-1 (Interleukin 1) Beta [2, 16]: 0.00 pg/mL
- IL-6 (Interleukin 6) [2, 16]: -0.30 pg/mL
- IL-8 (Interleukin 8) [2, 16]: −4.25** pg/mL
- IR-IRA (Interleukin 1 Receptor Antagonist) [2, 16]: -26.25 pg/mL
- TIMP-1 (Tissue Inhibitor Metalloproteinases 1) [2, 16]: -25.3 ng/mL
- TNF Receptor 2 (STNFR-2) [2, 16]: −2.7*** ng/mL
- VCAM (Vascular Cell Adnhesion Molecule) [2, 16]: −81.0* ng/mL
- ALT, mean change [2, 11]: −29.3 U/L
- ALT, mean after treatment ([2]; 350 mg, patients with baseline elevated ALT (n=8), baseline 83.7): 54.3 U/L
- CCL2 level ([2]; 700 mg SC weekly): balanced or increased levels
- CCL3 level ([2]; 700 mg SC weekly): balanced or increased levels
- CCL11 level ([2]; 700 mg SC weekly): balanced or increased levels
- CCL18 level ([2]; 700 mg SC weekly): balanced or increased levels
- Apolipoprotein A1 [2, 13]: Improvements
- HDL [2, 13]: strong increase
- M65 ELISA (cK18 and K18), mean change baseline to week 14 (serum cK18 and K18; 350 mg group): −8.18 U/L
- M65 ELISA (cK18 and K18), mean at week 14 (serum cK18 and K18; 350 mg group, baseline 340.55): 332.4 U/L
- CK18 (serum cK18 and K18; [13]): statistically significant reductions
- M30 (serum cK18 and K18; [17]): statistically significant reductions
- M65 (serum cK18 and K18; [17]): statistically significant reductions
- tolerability ([4]; Part 1 (700 mg) and Part 2 (350 mg)): generally well tolerated
- grade 3 or higher drug related treatment emergent adverse event ([4]; Part 1 and Part 2): no
- Injection site reaction and mild diarrhea, frequency vs placebo ([4]; not associated with discontinuation): occurred more frequently
- treatment effect ([5]; 350 mg, haplotypes correlated with low to normal surface expression of CCR5): benefited
- treatment effect ([5]; 700 mg or 350 mg, haplotypes correlated with high surface expression of CCR5, greater at 700 mg): positive effects
- treatment effect ([5]; 700 mg, haplotypes correlated with low to normal surface expression of CCR5): negative effects
- IC50 of CCL5-induced calcium mobilization (CCR5): 45 µg/mL
- CCR5 surface expression / depletion of CCR5-expressing cells (CCR5-expressing cells): does not downregulate CCR5 surface expression or deplete CCR5-expressing cells
- MRI cT1 [6]: significantly reduced
- HIV-1 entry and replication (HIV-1): potently inhibits
